Laboratory results from US20160175324A1, “ANTI-ACNE COMPOSITIONS COMPRISING BILE ACID-FATTY ACID CONJUGATES” (GALDERM THERAPEUTICS LTD., priority 2013, published 2016).

How the values were obtained:
[1] = system: ABCA1; test: ABCA1 protein concentration in fibroblasts during cholesterol efflux; format: cell-based, human; conditions: efflux in the presence of FABAC, compared to untreated cells
Experimental: (§1) Steamchol was incubated with human skin fibroblasts for 20 hours to measure cholesterol loading in the presence of [^3H] cholesterol. After series of washing and adding efflux containing cholesterol acceptors, medium was collected and centrifuged and cell associated cholesterol was compared to effluxed cholesterol in the presence and absence of the similar FABAC. This research project also included quantification of mRNA of ABCA1 and direct measurement of ABCA1.
(§2) Similarly, cells were pre-incubated with […] cholesterol, washed four times and then placed in an incubation medium with or without Aramchol for 20 hours. Following the incubation, radioactivity was measured separately in the medium and in the cells. Cholesterol efflux percentage was calculated as radioactivity in medium divided by the total radioactivity (cells+medium).

[2] = system: human skin fibroblasts; test: Cholesterol efflux with [3H] cholesterol in fibroblasts; format: cell-based; conditions: 20 hours incubation, compared to untreated cells
Experimental: as §1, §2

[3] = system: sebum production; conditions: background statement; cited from earlier work
[4] = system: Full-thickness Epiderm cultures (EFT-400, MatTek); test: Cytotoxicity assay (MTT) after topical application to full-thickness skin cultures; format: cell-based; conditions: for Cell Viability: 24-hour exposure, MTT, vs untreated control
Experimental: Full-thickness Epiderm cultures (EFT-400, MatTek) were used to determine toxicity in response to topical application of a test material (Steamchol).
The test material was provided as a powder. Test solutions were prepared by adding the appropriate amount of powdered material to 1 mL DMSO. Lower concentrations were made by serial dilution with 100% DMSO. The final test material concentrations and treatments were: 2% Steamchol (20,000 ug/mL); 1% Steamchol (10,000 ug/mL); 0.1% Steamchol (1000 ug/mL); 0.01% Steamchol (100 ug/mL); vehicle control (100% DMSO); and untreated control.
Full-thickness skin cultures (EFT-400) were maintained according to MatTek protocol; the cultures were equilibrated at 37° C. and 5% CO2 for 24 hours prior to application of test materials. Test material was applied to the surface of each culture using sterile techniques (10 μL applied to each culture). Two cultures were assigned to each treatment group and the viability percentages presented below are averages of viability of each two cultures. Two EFT cultures served as an untreated control (also referred to as negative control in FIG. 2), and two other EFT cultures served as a positive control (100 μL 1% Triton X-100).
Following a 24-hour incubation period with the test material, cultures were processed for cell toxicity analysis using an MTT [(3-4,5-dimethylthiazole-2-yl) 2,5-diphenyltetrazoliumbromide] assay (reagents purchased from MatTek). Viable tissues converted MTT into a blue formazan salt that was detected by measuring absorbance at a specific wavelength of light (A570). Percent viability was calculated by comparing the A570 reading of the test cultures to the A570 of the untreated control culture, using the following formula: [Treated A570/Untreated A570]*100

[5] = system: ABCA1; test: Taqman gene expression in Epiderm FT skin culture, ABCA1 mRNA; format: cell-based; conditions: 0.5% (5000 μg/mL) in DMSO, 24 hours post-application, vs DMSO control
Experimental: (§3) A full-thickness in vitro skin culture model, Epiderm FT (MatTek, MA), was treated with Steamchol. A non-cytotoxic concentration of Steamchol in DMSO (0.5%, 5000 μg/mL) was applied to the surface of each test culture and cells were collected 24 hours post-application. Control cells were similarly treated with DMSO without Steamchol. Tissues were collected in RNAlater for gene expression analysis. Gene expression was analyzed using validated Taqman gene expression assays in a Taqman Low Density Array (TLDA) format. 94 genes that regulate a variety of known functions in skin were analyzed, including the ABCA1 and SCD1 genes. The experimental set up was conducted in a 96-well format using validated Taqman gene expression assays. Each gene was assayed in duplicates. Statistics were carried out using the StatMiner software v4.2 (unpaired t-tests, p<0.05, N=4) to compare the 0.5% Steamchol group to the DMSO control group.

[6] = system: KRT1 (keratin 1); test: Taqman gene expression in Epiderm FT skin culture, KRT1; format: cell-based; conditions: 0.5% (5000 μg/mL) in DMSO, 24 hours post-application, vs DMSO control
Experimental: as §3

[7] = system: KRT10 (keratin 10); test: Taqman gene expression in Epiderm FT skin culture, KRT10; format: cell-based; conditions: 0.5% (5000 μg/mL) in DMSO, 24 hours post-application, vs DMSO control
Experimental: as §3

| SMILES | ABCA1 protein concentration increase [1] | Cholesterol efflux in fibroblasts [2] | Decrease of sebum production [3] | Cell Viability ([4]; 0.01% Steamchol (100 ug/mL) in DMSO) | Cell Viability ([4]; 0.1% Steamchol (1000 ug/mL) in DMSO) | Cell Viability ([4]; 1% Steamchol (10,000 ug/mL) in DMSO) | Cell Viability ([4]; 2% Steamchol (20,000 ug/mL) in DMSO) | Toxicity in previous viability assay ([4]; 40.0, 13.3, 4.4, 1.5 ug/mL, data not shown) | Cell viability compared to the untreated control ([4]; all dilutions tested (0.01%-2%), 24 hours) | Change in mRNA levels of ABCA1 [5] | Fold Change of keratin 1 gene expression [6] | Fold Change of keratin 10 gene expression [7] |
| --- | --- | --- | --- | --- | --- | --- | --- | --- | --- | --- | --- | --- |
| CCCCCCCCCCCCCCCCCCCC(=O)N[C@H]1CC[C@@]2(C)[C@@H](C1)C[C@@H](O)[C@@H]1[C@@H]2C[C@H](O)[C@]2(C)[C@@H]([C@H](C)CCC(=O)O)CC[C@@H]12 [Aramchol, 3β-arachidylamido-7α,12α, dihidroxy-5β-cholan-24-oic acid] | approximately 2 fold | significantly enhanced | – | – | – | – | – | – | – | – | – | – |
| CC1=C(/C=C/C(C)=C/C=C/C(C)=C\C(=O)O)C(C)(C)CCC1 [Isotretinoin] | – | – | up to 90% | – | – | – | – | – | – | – | – | – |
| CCCCCCCCCCCCCCCCCC(=O)N[C@H]1CC[C@@]2(C)[C@@H](C1)C[C@@H](O)[C@@H]1[C@@H]2C[C@H](O)[C@]2(C)[C@@H]([C@H](C)CCC(=O)O)CC[C@@H]12 [Steamchol, 3β-stearylamido-7α,12α, dihidroxy-5β-cholan-24-oic acid] | approximately 2 fold | significantly enhanced | – | 100.41% | 99.98% | 96.88% | 93.89% | no toxicity was observed | ~100% | No significant change | −2.49 | −2.60 |
